The source of these data is ChEMBL document CHEMBL1133488 (Bioorg Med Chem Lett, 2000).

In this experiment the target is T1, Scytalone dehydratase (Magnaporthe oryzae (strain 70-15 / FGSC 8958) (Rice blast fungus)(Pyricularia oryzae), UniProt P56221).
T1 sequence (P56221 whole entry): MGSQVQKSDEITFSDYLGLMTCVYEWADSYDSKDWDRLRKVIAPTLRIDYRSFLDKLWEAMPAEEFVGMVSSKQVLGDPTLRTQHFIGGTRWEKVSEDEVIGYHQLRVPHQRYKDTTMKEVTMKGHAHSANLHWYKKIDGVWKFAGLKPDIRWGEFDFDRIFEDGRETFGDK
In words: The compound was evaluated for its binding affinity against wild type scytalone dehydratase (SD). Set-up: species or system Pyricularia grisea.

The structures appear in SMILES notation.

The Ki is a dissociation constant, usually derived from enzyme kinetics or from competition with a known ligand. Consider `CC(C)NC(=O)c1cc(F)ccc1O`, for which the Ki worked out at 450 nM.
